Calls of active or inactive are those of the source. No cut-off for these calls is given here.
Legend:
[1] = biological target: Neurotensin receptor type 1 (Rattus norvegicus, UniProt P20789); assay: Displacement of [125I]NT from rat NTR1 transfected in mouse LTK cells; type: cell-based
[2] = test system: SK-OV-3; assay: Cytotoxicity against human SKOV3 cells at 100 uM by MTS assay; type: functional, cell-based
[3] = test system: SK-OV-3; assay: Cytotoxicity against human SKOV3 cells at < 100 uM by MTS assay; type: functional, cell-based
[4] = biological target: T1, Sortilin (Homo sapiens, UniProt Q99523); assay: Binding affinity to NTR3 (unknown origin)
T1 sequence (Q99523 whole entry): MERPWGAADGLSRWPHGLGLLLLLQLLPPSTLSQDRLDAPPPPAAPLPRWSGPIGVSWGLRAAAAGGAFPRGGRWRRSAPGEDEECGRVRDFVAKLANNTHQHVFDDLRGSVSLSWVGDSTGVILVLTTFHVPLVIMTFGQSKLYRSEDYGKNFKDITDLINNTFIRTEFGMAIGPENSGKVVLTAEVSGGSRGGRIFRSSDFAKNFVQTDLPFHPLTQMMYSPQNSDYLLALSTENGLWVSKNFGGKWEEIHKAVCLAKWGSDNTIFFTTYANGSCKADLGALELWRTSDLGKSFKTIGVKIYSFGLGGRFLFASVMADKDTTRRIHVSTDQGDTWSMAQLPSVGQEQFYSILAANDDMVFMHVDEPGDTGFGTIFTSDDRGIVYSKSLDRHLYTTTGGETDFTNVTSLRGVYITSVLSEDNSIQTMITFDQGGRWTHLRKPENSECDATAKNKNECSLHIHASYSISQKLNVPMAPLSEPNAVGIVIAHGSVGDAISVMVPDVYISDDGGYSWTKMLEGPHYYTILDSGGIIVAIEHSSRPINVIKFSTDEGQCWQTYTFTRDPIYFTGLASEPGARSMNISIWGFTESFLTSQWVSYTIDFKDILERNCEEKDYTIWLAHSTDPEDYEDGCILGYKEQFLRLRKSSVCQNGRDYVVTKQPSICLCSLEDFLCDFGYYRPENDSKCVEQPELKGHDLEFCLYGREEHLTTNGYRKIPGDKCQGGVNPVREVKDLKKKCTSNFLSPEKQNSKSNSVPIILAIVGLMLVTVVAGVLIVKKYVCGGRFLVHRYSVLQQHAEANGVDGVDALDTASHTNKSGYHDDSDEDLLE

[5] = test system: LNCaP; assay: Cytotoxicity against human LNCAP cells at >/= 50 uM after 5 days by CellTitre Glo assay; type: functional, cell-based
[6] = biological target: Neurotensin receptor type 2 (Homo sapiens, UniProt O95665); assay: Binding affinity to NTR2 (unknown origin)
Sequence of Neurotensin receptor type 2 (O95665 whole entry): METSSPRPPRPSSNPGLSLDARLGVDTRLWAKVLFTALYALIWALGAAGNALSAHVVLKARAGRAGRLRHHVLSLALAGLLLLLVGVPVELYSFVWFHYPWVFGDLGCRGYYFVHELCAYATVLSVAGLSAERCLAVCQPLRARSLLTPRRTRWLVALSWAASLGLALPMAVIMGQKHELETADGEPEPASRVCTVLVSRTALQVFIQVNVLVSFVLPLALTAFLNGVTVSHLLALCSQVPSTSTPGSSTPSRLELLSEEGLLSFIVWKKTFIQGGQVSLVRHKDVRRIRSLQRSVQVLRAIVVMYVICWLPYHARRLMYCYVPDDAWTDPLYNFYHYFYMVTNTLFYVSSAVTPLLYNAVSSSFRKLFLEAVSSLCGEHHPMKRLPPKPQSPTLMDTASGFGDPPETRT

[7] = test system: LNCaP C4-2B; assay: Cytotoxicity against human C4-2B cells at >/= 50 uM after 5 days by CellTitre Glo assay; type: functional, cell-based
[8] = test system: LNCaP; assay: Cytotoxicity against human biculamide-resistant LNCAP cells at >/= 50 uM after 5 days by CellTitre Glo assay; type: functional, cell-based
[9] = Cytotoxicity against human C4-2B cells after 5 days by CellTitre Glo assay; type: functional, cell-based; details: LNCaP C4-2B, 120 h

Sequence of Neurotensin receptor type 1 (P20789 whole entry): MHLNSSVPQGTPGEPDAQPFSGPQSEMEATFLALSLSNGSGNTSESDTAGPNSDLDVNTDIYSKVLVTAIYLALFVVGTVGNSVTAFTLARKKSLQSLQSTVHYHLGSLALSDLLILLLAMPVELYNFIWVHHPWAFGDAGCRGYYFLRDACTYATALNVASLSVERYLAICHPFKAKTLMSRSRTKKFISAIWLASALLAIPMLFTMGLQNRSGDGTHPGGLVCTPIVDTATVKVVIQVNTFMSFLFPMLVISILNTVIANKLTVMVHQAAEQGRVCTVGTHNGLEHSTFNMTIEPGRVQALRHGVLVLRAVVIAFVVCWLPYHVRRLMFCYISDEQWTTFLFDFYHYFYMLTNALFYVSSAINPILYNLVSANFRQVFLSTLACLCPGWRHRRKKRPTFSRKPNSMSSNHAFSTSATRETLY

COc1cccc(OC)c1-c1cc(C(=O)NC2(C(=O)O)C3CC4CC(C3)CC2C4)nn1-c1ccnc2cc(Cl)ccc12 (centres undefined) [REMINERTANT]
Ki [1]: 2.6 nM
Activity [2]: Active
Activity [3]: inactive
IC50 [4]: 238 nM
Activity [5]: Active
Ki [6]: 418 nM
Activity [7]: Active
Activity [8]: Active
IC50 [9]: 30000 nM

From ChEMBL document CHEMBL2401662, “The synthesis of neurotensin antagonist SR 48692 for prostate cancer research” (Bioorg Med Chem, 2013)
